Measured values reported in ChEMBL document CHEMBL5543059, “Discovery of anti-inflammatory natural flavonoids: Diverse scaffolds and promising leads for drug discovery” (Eur J Med Chem, 2023).
In brackets after ≈: the same amount, converted by molar mass.

Key:
[1] = test system: RAW264.7; assay: Antiinflammatory activity against mouse RAW264.7 cells assessed as inhibition of LPS-stimulated TNF-alpha level by ELISA method; assay type: functional, cell-based
[2] = test system: J774.A1; assay: Antiinflammatory activity against mouse J774.A1 cells assessed as inhibition of LPS-stimulated TNF-alpha level by ELISA method; assay type: functional, cell-based
[3] = Antioxidant activity assessed as DPPH radical scavenging activity at 100 microg/ml relative to control; assay type: functional; conditions: dose 100.0 µg/ml
[4] = Anti-inflammatory activity in LPS-stimulated human PBMC cells assessed as COX-2 inhibition at 100 ug/ml relative to control; assay type: functional; parameters: scale not given: the % may be the effect or the level left; conditions: dose 100 µg/ml
[5] = test system: RAW264.7; assay: Inhibition of NF-kappaB activation in mouse RAW264.7 cells expressing luciferase gene at 100 microg/ml by luciferase reporter gene assay; assay type: cell-based; conditions: dose 100.0 µg/ml
[6] = Anti-inflammatory activity in LPS-stimulated human PBMC cells assessed as inhibition of TNFalpha at 100 ug/ml relative to control; assay type: functional; parameters: scale not given: the % may be the effect or the level left; conditions: dose 100 µg/ml
[7] = Anti-inflammatory activity in LPS-stimulated human PBMC cells assessed as 5-lipoxygenase inhibition at 100 ug/ml relative to control; assay type: functional; parameters: scale not given: the % may be the effect or the level left; conditions: dose 100 µg/ml
[8] = test system: Neutrophil; assay: Inhibition of fMLF/CB-induced human Neutrophil activation assessed as reduction in superoxide anion at 10 uM relative to control; assay type: functional; parameters: scale not given: the % may be the effect or the level left
[9] = test system: HEK293; assay: Anti-inflammatory activity against TNFalpha-induced HEK293 cells assessed as inhibition of NF-kappaB activity pre-indubated for 1 hr followed by TNFalpha treatment measured for 5 hrs by luciferase based assay; assay type: functional, cell-based; conditions: Homo sapiens
[10] = Inhibition of TNF-alpha induced NF-kappaB activation in HEK293-A cells incubated for 15 mins by Western blot analysis; assay type: cell-based; conditions: Homo sapiens, HEK293, 0.25 h
[11] = test system: Mus musculus; assay: Antiinflammatory activity against TPA-induced mouse ear edema model assessed as reduction in NO production measured after 4 hrs; assay type: functional, organism-based
[12] = test system: BV-2; assay: Antineuroinflammatory activity in LPS-induced mouse BV-2 cells assessed as inhibition of NO production pre-incubated for 2 hr followed by LPS-stimulation measured for 24 hrs by Griess reagent based analysis; assay type: functional, cell-based
[13] = test system: RAW264.7; assay: Anti-inflammatory activity in mouse RAW264.7 cells assessed as inhibition of LPS-induced NO production at 20 uM by Griess reagent based analysis relative to control; assay type: functional; parameters: scale not given: the % may be the effect or the level left
[14] = target: T1, Polyunsaturated fatty acid 5-lipoxygenase (Homo sapiens) (UniProt P09917); assay: Inhibition of 5-Lipoxygenase (unknown origin) at 30 uM relative to control
T1 sequence (whole entry): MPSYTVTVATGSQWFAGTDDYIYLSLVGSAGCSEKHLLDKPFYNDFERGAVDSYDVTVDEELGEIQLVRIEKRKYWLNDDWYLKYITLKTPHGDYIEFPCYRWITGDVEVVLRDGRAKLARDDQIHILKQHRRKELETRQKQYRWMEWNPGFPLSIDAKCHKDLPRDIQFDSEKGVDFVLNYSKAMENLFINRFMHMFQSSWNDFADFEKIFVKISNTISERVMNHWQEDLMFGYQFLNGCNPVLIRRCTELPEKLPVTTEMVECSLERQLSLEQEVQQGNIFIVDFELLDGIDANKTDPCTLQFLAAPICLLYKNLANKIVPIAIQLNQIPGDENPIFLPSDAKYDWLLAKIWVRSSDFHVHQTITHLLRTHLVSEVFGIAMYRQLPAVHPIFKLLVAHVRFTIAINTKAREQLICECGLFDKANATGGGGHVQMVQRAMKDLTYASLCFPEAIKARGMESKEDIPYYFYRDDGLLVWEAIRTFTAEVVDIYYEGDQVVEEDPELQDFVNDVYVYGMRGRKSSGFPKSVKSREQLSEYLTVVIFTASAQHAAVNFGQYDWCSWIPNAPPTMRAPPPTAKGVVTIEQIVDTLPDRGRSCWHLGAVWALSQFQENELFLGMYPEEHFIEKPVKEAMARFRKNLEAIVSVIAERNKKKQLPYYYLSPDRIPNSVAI

[15] = test system: RAW264.7; assay: Anti-inflammatory activity in LPS-stimulated mouse RAW264.7 cells assessed as inhibition of NO production incubated for 24 hrs by Griess reagent based assay; assay type: functional, cell-based; conditions: RAW264.7, 24 h
[16] = Antioxidant activity assessed as ABTS radical scavenging activity incubated for 40 mins; assay type: functional
[17] = Antioxidant activity assessed as DPPH radical scavenging activity measured for 30 mins; assay type: functional
[18] = test system: Mus musculus; assay: Anti-inflammatory activity in mouse model of xylene-induced auricle edema assessed as inhibition of ear swelling at 50 mg/kg, IG pre-treated for 1 hr followed by xylene addition and measured after 1 hr relative to control; assay type: functional; parameters: scale not given: the % may be the effect or the level left
[19] = target: T2, Inhibitor of nuclear factor kappa-B kinase subunit beta (Homo sapiens) (UniProt O14920); assay: Inhibition of IKKbeta phosphorylation in high glucose-induced HUVEC cells at 1 uM relative to control; assay type: cell-based
T2 sequence (whole entry): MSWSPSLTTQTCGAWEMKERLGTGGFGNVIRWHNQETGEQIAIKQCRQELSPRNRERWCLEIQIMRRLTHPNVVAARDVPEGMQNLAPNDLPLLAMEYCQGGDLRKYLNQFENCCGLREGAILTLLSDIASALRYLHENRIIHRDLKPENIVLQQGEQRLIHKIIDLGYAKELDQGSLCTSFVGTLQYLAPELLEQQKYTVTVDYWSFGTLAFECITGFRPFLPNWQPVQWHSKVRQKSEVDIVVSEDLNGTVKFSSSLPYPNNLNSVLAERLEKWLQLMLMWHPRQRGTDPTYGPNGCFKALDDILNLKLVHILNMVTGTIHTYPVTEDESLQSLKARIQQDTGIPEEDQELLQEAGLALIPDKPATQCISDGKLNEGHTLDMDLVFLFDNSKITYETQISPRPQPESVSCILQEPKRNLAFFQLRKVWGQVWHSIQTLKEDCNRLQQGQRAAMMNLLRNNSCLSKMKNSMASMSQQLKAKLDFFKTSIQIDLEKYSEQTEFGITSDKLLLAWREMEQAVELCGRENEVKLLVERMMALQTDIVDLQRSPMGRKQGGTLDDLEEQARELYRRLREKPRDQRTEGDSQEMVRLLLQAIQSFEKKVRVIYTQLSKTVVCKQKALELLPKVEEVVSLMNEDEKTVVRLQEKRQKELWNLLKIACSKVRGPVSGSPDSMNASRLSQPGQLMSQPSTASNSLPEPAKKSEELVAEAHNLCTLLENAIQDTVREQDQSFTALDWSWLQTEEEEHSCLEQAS

[20] = target: T2, Inhibitor of nuclear factor kappa-B kinase subunit beta (Homo sapiens); assay: Inhibition of IKKbeta phosphorylation in high glucose-induced HUVEC cells at 0.1 uM relative to control; assay type: cell-based
[21] = test system: Rat aortic endothelial cell; assay: Inhibition of NF-kappaB p65 phosphorylation in high glucose-induced Rat aortic endothelial cell at 1 uM relative to control; assay type: cell-based
[22] = test system: Rat aortic endothelial cell; assay: Inhibition of NF-kappaB p65 phosphorylation in high glucose-induced Rat aortic endothelial cell at 0.1 uM relative to control; assay type: cell-based
[23] = target: T2, Inhibitor of nuclear factor kappa-B kinase subunit beta (Homo sapiens); assay: Inhibition of IKKbeta phosphorylation in high glucose-induced HUVEC cells at 10 uM relative to control; assay type: cell-based
[24] = test system: Rat aortic endothelial cell; assay: Inhibition of NF-kappaB p65 phosphorylation in high glucose-induced Rat aortic endothelial cell at 10 uM relative to control; assay type: cell-based
[25] = test system: Mus musculus; assay: Anti-inflammatory activity in mouse model of xylene-induced auricle edema assessed as inhibition of ear swelling at 200 mg/kg, IG pre-treated for 1 hr followed by xylene addition and measured after 1 hr relative to control; assay type: functional; parameters: scale not given: the % may be the effect or the level left

## COc1cc(O)c2c(c1CC=C(C)C)OC(c1ccccc1)CC2=O (centres undefined)
[1]
  IC50: 41.2 µM
[2]
  IC50: 35.5 µM

## COc1cc(-c2cc(=O)c3c(O)cc(O)cc3o2)cc(O)c1OC
[3]
  Activity: 40%
[4]
  Activity: 83.3%
[5]
  inhibition: 23.1%
[6]
  Activity: 86.1%
[7]
  Activity: 98.4%

## COc1cc(O)c2c(=O)c(-c3ccc(O)c(OC)c3)coc2c1
[8]
  Activity: 49%

## C=C1C(=O)O[C@@H]2C3O[C@]3(C)CC/C=C(\C)CC[C@@H]12 (some centres undefined)
[9]
  IC50: 1.5 µM
[10]
  IC50: 1.5 µM

## CC(C)=CCC/C(C)=C/Cc1c(O)cc2oc(-c3ccc(O)cc3)cc(=O)c2c1O
[11]
  IC50: 4.1 µg/mL (≈ 10.1 µM)

## C=C(C)[C@H](O)CC/C(C)=C/Cc1c(O)cc2oc(-c3ccc(O)cc3)cc(=O)c2c1O
[11]
  IC50: 3.5 µg/mL (≈ 8.28 µM)

## CC(C)(O)[C@@H]1Cc2cc(/C=C/C(=O)c3ccc4c(c3O)C[C@H](C(C)(C)O)O4)ccc2O1
[12]
  IC50: 12.4 µM

## COc1cc(-c2cc(=O)c3c(O)c(OC)c(O)cc3o2)c(O)cc1O
[13]
  Activity: 54%
[14]
  inhibition: 46.9%

## COc1c(O)ccc2c(=O)cc(-c3ccc(O)c(O)c3)oc12
[15]
  IC50: 27.7 µM
[16]
  IC50: 7.9 µM
[17]
  IC50: 5 µM

## CC(C)(O)CCc1c(O)ccc(C(=O)/C=C/c2ccc3c(c2)C[C@@H](C(C)(C)O)O3)c1O
[12]
  IC50: 3.25 µM

## COc1ccc(-c2cc(=O)c3c(OC)c(OC)c(OC)cc3o2)cc1
[18]
  Activity: 42.8%

## COc1c(O)cc2oc(-c3ccc(O)cc3)cc(=O)c2c1O
[19]
  inhibition: 53.6%
[20]
  inhibition: 23.2%
[21]
  inhibition: 57.4%
[22]
  inhibition: 26.1%
[23]
  inhibition: 88.4%
[24]
  inhibition: 93.2%

## O=C1O[C@H]([C@@H](O)CO)C(O)=C1O [ASCORBIC ACID]
[16]
  IC50: 3.3 µM
[17]
  IC50: 2.1 µM

## CC(=O)Oc1ccccc1C(=O)O [ASPIRIN]
[25]
  Activity: 41.07%
